# Reference: patent US6737383B1, “Herbicidal oxadiazolidines” (priority 1999, dated 2004)
# Legend:
# sugar beet = experiment: Test B pre/postemergence sugar beet; type: in vivo, Beta vulgaris
# Procedure, shortened: (§1)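 Response is a visual 0-to-10 score relative to untreated plants, where 0 means no effect and 10 means complete control, taken twelve to sixteen days after application. Treatments went onto soil at planting and onto foliage of 1- to 4-leaf plants, using a surfactant-containing non-phytotoxic solvent.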
# giant foxtail = experiment: Test B pre/postemergence giant foxtail; type: in vivo, Setaria faberii
# Procedure, shortened: as §1
# surinam grass = experiment: Test B pre/postemergence surinam grass; type: in vivo, Brachiaria decumbens
# Procedure, shortened: as §1
# cocklebur = experiment: Test B pre/postemergence cocklebur; type: in vivo, Xanthium strumarium
# Procedure, shortened: as §1
# bedstraw = experiment: Test B pre/postemergence bedstraw; type: in vivo, Galium aparine
# Procedure, shortened: as §1
# corn = experiment: Test B pre/postemergence corn; type: in vivo, Zea mays
# Procedure, shortened: as §1
# morningglory = experiment: Test B pre/postemergence morningglory; type: in vivo, Ipomoea hederacea
# Procedure, shortened: as §1
# duck salad = experiment: Test B flood test duck salad; type: in vivo, Heteranthera limosa
# Procedure, shortened: (§2)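 Flood test on plants grown to the 2-leaf stage; treated plants kept in greenhouse twelve to sixteen days, then visually rated against controls on a 0 (no effect) to 10 (complete control) scale.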
# pigweed = experiment: Test B pre/postemergence pigweed; type: in vivo, Amaranthus retroflexus
# Procedure, shortened: as §1
# smallflower flatsedge = experiment: Test B flood test smallflower flatsedge; type: in vivo, Cyperus difformis
# Procedure, shortened: as §2
# purple nutsedge = experiment: Test B pre/postemergence purple nutsedge; type: in vivo, Cyperus rotundus
# Procedure, shortened: as §1
# rice = experiment: Test B flood test rice; type: in vivo, Oryza sativa
# Procedure, shortened: as §2
# crabgrass = experiment: Test B pre/postemergence crabgrass; type: in vivo, Digitaria sanguinalis
# Procedure, shortened: as §1
# wild oat = experiment: Test B pre/postemergence wild oat; type: in vivo, Avena fatua
# Procedure, shortened: as §1
# blackgrass = experiment: Test B pre/postemergence blackgrass; type: in vivo, Alopecurus myosuroides
# Procedure, shortened: as §1
# soybean = experiment: Test B pre/postemergence soybean; type: in vivo, Glycine max
# Procedure, shortened: as §1
# [1] = Preemergence, Rate 62 g/ha, scale of 0 to 10 where 0 is no effect and 10 is complete control
# [2] = Preemergence, Rate 250 g/ha, scale 0 to 10, 0 is no effect, 10 is complete control
# [3] = Preemergence, Rate 500 g/ha, scale of 0 to 10 where 0 is no effect and 10 is complete control
# [4] = Rate 62 g/ha, Postemergence, scale of 0 to 10 where 0 is no effect and 10 is complete control
# [5] = Rate 125 g/ha, Postemergence, scale 0 to 10
# [6] = Rate 125 g/ha, Preemergence, scale of 0 to 10 where 0 is no effect and 10 is complete control
# [7] = Rate 500 g/ha, Postemergence, scale 0 to 10
# [8] = Rate 62 g/ha, headed Pre-emergence (flood test species), scale 0 to 10 (0 no effect, 10 complete control)
# [9] = Rate 125 g/ha, Pre-emergence, flood test species, scale 0 to 10 where 0 is no effect and 10 is complete control
# [10] = Rate 250 g/ha, Pre-emergence, flood-test species, scale 0 to 10, 0 is no effect, 10 is complete control
# [11] = Rate 500 g/ha, Pre-emergence, flood test species, scale 0 to 10 (0 no effect, 10 complete control)
compound,measurement,setting,value
CC(C)N(C(=O)n1oc(=O)n(CC=Cc2ccccc2)c1=O)c1ccc(F)cc1 [Compound 210],Sugarbeets plant response rating,sugar beet; [1],0
same,Sugarbeets plant response rating,sugar beet; [2],0
same,"Plant response rating, Sugarbeets",sugar beet; [3],3
same,Sugarbeets plant response rating,sugar beet; [4],0
same,Sugarbeets plant response rating,sugar beet; [5],0
same,Sugarbeets plant response rating,sugar beet; [6],0
same,"Plant response rating (0 to 10; 0 is no effect, 10 is complete control), Sugarbeets","sugar beet; Rate 250 g/ha, Postemergence",0
same,Sugarbeets plant response rating,sugar beet; [7],4
same,Giant foxtail plant response rating,giant foxtail; [1],0
same,Giant foxtail plant response rating,giant foxtail; [2],3
same,"Plant response rating, Giant foxtail",giant foxtail; [3],5
same,Giant foxtail plant response rating,giant foxtail; [4],0
same,Giant foxtail plant response rating,giant foxtail; [5],0
same,Giant foxtail plant response rating,giant foxtail; [6],0
same,"Plant response rating (0 to 10; 0 is no effect, 10 is complete control), Giant foxtail","giant foxtail; Rate 250 g/ha, Postemergence",0
same,Giant foxtail plant response rating,giant foxtail; [7],0
same,B. signalgrass plant response rating,surinam grass; [1],0
same,B. signalgrass plant response rating,surinam grass; [2],0
same,"Plant response rating, B. signalgrass",surinam grass; [3],0
same,B. signalgrass plant response rating,surinam grass; [4],0
same,B. signalgrass plant response rating,"surinam grass; Rate 125 g/ha, Postemergence, scale 0 (no effect) to 10 (complete control)",0
same,B. signalgrass plant response rating,surinam grass; [6],0
same,"Plant response rating (0 to 10; 0 is no effect, 10 is complete control), B. signalgrass","surinam grass; Rate 250 g/ha, Postemergence",0
same,B. signalgrass plant response rating,"surinam grass; Rate 500 g/ha, Postemergence, scale 0 to 10, 0 no effect, 10 complete control",0
same,Cocklebur plant response rating,cocklebur; [1],0
same,Cocklebur plant response rating,cocklebur; [2],0
same,"Plant response rating, Cocklebur",cocklebur; [3],0
same,Cocklebur plant response rating,cocklebur; [4],0
same,Cocklebur plant response rating,cocklebur; [5],0
same,Cocklebur plant response rating,cocklebur; [6],0
same,"Plant response rating (0 to 10; 0 is no effect, 10 is complete control), Cocklebur","cocklebur; Rate 250 g/ha, Postemergence",0
same,Cocklebur plant response rating,cocklebur; [7],2
same,Bedstraw plant response rating,bedstraw; [1],0
same,Bedstraw plant response rating,bedstraw; [2],0
same,"Plant response rating, Bedstraw",bedstraw; [3],0
same,Bedstraw plant response rating,bedstraw; [4],0
same,Bedstraw plant response rating,bedstraw; [5],2
same,Bedstraw plant response rating,bedstraw; [6],0
same,"Plant response rating (0 to 10; 0 is no effect, 10 is complete control), Bedstraw","bedstraw; Rate 250 g/ha, Postemergence",4
same,Corn plant response rating,corn; [1],0
same,Corn plant response rating,corn; [2],0
same,"Plant response rating, Corn",corn; [3],0
same,Corn plant response rating,corn; [4],0
same,Corn plant response rating,corn; [5],0
same,Corn plant response rating,corn; [6],0
same,"Plant response rating (0 to 10; 0 is no effect, 10 is complete control), Corn","corn; Rate 250 g/ha, Postemergence",0
same,Corn plant response rating,corn; [7],0
same,Morningglory plant response rating,morningglory; [1],0
same,Morningglory plant response rating,morningglory; [2],0
same,"Plant response rating, Morningglory",morningglory; [3],0
same,Morningglory plant response rating,morningglory; [4],2
same,Morningglory plant response rating,morningglory; [5],2
same,Morningglory plant response rating,morningglory; [6],0
same,"Plant response rating (0 to 10; 0 is no effect, 10 is complete control), Morningglory","morningglory; Rate 250 g/ha, Postemergence",3
same,Morningglory plant response rating,morningglory; [7],7
same,Ducksalad plant response rating,duck salad; [8],0
same,Ducksalad plant response rating,duck salad; [9],0
same,Ducksalad plant response rating,duck salad; [10],0
same,Ducksalad plant response rating,duck salad; [11],0
same,Redroot pigweed plant response rating,pigweed; [1],0
same,Redroot pigweed plant response rating,pigweed; [2],2
same,"Plant response rating, Redroot pigweed",pigweed; [3],8
same,Redroot pigweed plant response rating,pigweed; [4],0
same,Redroot pigweed plant response rating,pigweed; [5],0
same,Redroot pigweed plant response rating,pigweed; [6],0
same,"Plant response rating (0 to 10; 0 is no effect, 10 is complete control), Redroot pigweed","pigweed; Rate 250 g/ha, Postemergence",2
same,Redroot pigweed plant response rating,pigweed; [7],6
same,S. Flatsedge plant response rating,smallflower flatsedge; [8],0
same,S. Flatsedge plant response rating,smallflower flatsedge; [9],0
same,S. Flatsedge plant response rating,smallflower flatsedge; [10],0
same,S. Flatsedge plant response rating,smallflower flatsedge; [11],0
same,Nutsedge plant response rating,purple nutsedge; [1],0
same,Nutsedge plant response rating,purple nutsedge; [2],0
same,"Plant response rating, Nutsedge",purple nutsedge; [3],0
same,Nutsedge plant response rating,purple nutsedge; [4],0
same,Nutsedge plant response rating,purple nutsedge; [5],0
same,Nutsedge plant response rating,purple nutsedge; [6],0
same,"Plant response rating (0 to 10; 0 is no effect, 10 is complete control), Nutsedge","purple nutsedge; Rate 250 g/ha, Postemergence",0
same,Nutsedge plant response rating,purple nutsedge; [7],0
same,Rice plant response rating,rice; [8],0
same,Rice plant response rating,rice; [9],0
same,Rice plant response rating,rice; [10],0
same,Rice plant response rating,rice; [11],0
same,Crabgrass plant response rating,crabgrass; [1],0
same,Crabgrass plant response rating,crabgrass; [2],3
same,"Plant response rating, Crabgrass",crabgrass; [3],8
same,Crabgrass plant response rating,crabgrass; [4],0
same,Crabgrass plant response rating,crabgrass; [5],0
same,Crabgrass plant response rating,crabgrass; [6],0
same,"Plant response rating (0 to 10; 0 is no effect, 10 is complete control), Crabgrass","crabgrass; Rate 250 g/ha, Postemergence",0
same,Crabgrass plant response rating,crabgrass; [7],0
same,Wild oats plant response rating,wild oat; [1],0
same,Wild oats plant response rating,wild oat; [2],2
same,"Plant response rating, Wild oats",wild oat; [3],2
same,Wild oats plant response rating,wild oat; [4],0
same,Wild oats plant response rating,wild oat; [5],0
same,Wild oats plant response rating,wild oat; [6],0
same,"Plant response rating (0 to 10; 0 is no effect, 10 is complete control), Wild oats","wild oat; Rate 250 g/ha, Postemergence",0
same,Blackgrass plant response rating,blackgrass; [1],0
same,Blackgrass plant response rating,blackgrass; [2],0
same,"Plant response rating, Blackgrass",blackgrass; [3],4
same,Blackgrass plant response rating,blackgrass; [4],0
same,Blackgrass plant response rating,blackgrass; [5],0
same,Blackgrass plant response rating,blackgrass; [6],0
same,"Plant response rating (0 to 10; 0 is no effect, 10 is complete control), Blackgrass","blackgrass; Rate 250 g/ha, Postemergence",0
same,Blackgrass plant response rating,blackgrass; [7],2
same,Soybean plant response rating,soybean; [1],0
same,Soybean plant response rating,soybean; [2],0
same,"Plant response rating, Soybean",soybean; [3],0
same,Soybean plant response rating,soybean; [4],1
same,Soybean plant response rating,soybean; [5],1
same,Soybean plant response rating,soybean; [6],0
same,"Plant response rating (0 to 10; 0 is no effect, 10 is complete control), Soybean","soybean; Rate 250 g/ha, Postemergence",1
same,Soybean plant response rating,soybean; [7],3
